The test can be described thus: CNT-FET control covalently functionalized with empty nanodiscs (Example 3). The following applies: empty nanodiscs 1:100 dilution; increasing amounts of ligand. The procedure: The dispersion was sonicated until a clear solution was obtained. The temperature was kept at 25° C. throughout the sonication process. The thiolpyridine solution was prepared by dissolving 10 mg of 2-Mercaptopyridine (99%, Sigma Aldrich) in 1 ml of methanol. The solution was spun coated on a polydimethylsiloxane (PDMS) surface at 2000 rpm for one minute. Before the spin coating process, the PDMS surface was cleaned by a 50 W Oxygen plasma for 1 minute to improve the wettability. The cleaned substrates were placed upside down on the PDMS surface for three minutes and washed in ethanol to remove the excess thiolpyridine molecules. Then the substrates were transferred into the CNT suspension and immersed into the suspension for 10 minutes. The samples were removed from the suspension and dipped into Ethanol for another 10 minutes to remove the thiolpyridine molecules in the SWNT network. The alignment markers were deposited by defining the markers by photolithography and thermal evaporation of 5 nm Chromium and 50 nm of Gold. The metal Lift off was done by acetone immersion for 15 minutes followed by an Isopropyl alcohol (IPA) wash and N2 blow dry. The result is a uniform thin film CNT network covering the entire substrate surface. Nanodiscs were prepared using a protocol modified from Bayburt et al. 2010 and 2003^55, 56. Nanodiscs were formed at an MSP:protein:lipid ratio of 1:0.2:150. […]

Each structure is given as a SMILES string.

`COC(=O)c1ccccc1O` [methyl salicylate]: the current response entry is given as “no increase in current”.

These data come from patent US12044651B2, “Sensor device and methods” (SCENTIAN BIO LIMITED, priority 2016, dated 2024).
